{"source": "patent US10391070B2", "about": "“Compositions and methods for treating neurological diseases or injury” (MUSC FOUNDATION FOR RESEARCH DEVELOPMENT, priority 2012, dated 2019)", "key": {"PTZ-induced seizures": {"system": "PTZ-induced seizures", "experiment": "Subcutaneous PTZ seizure threshold test", "type": "in vivo, mouse", "settings": "mice, 100 mg/kg i.p. pretreatment, PTZ 85 mg/kg s.c.", "procedure": "Mouse studies were performed by NIH Anticonvulsant Screening Program at the National Institute of Neurological Disorders and Stroke (Stables and Kupferberg, 1997) according to the established NIH experimental procedures outlined below. Compounds were delivered into mice by i.p. injection at a dose of 100 mg/kg in sterile 5% DMSO, 95% Neobee (Josey et al., 2013). One of four methods for seizure induction was subsequently administered to mice at 0.25, 0.5, 1, 2 and 4 h after treatment with compound. (1) Subcutaneous PTZ seizure threshold test. PTZ was administered at a concentration of 85 mg/kg, into the loose fold of skin in the midline of the neck. […] (2) Maximal electroshock test. 60 Hz of 50 mA alternating current was delivered for 0.2 s by corneal electrodes. Mice were considered protected from seizures when the hindlimb tonic extensor was absent (White et al., 1995). (3) Minimal clonic seizure (6 Hz) test. 6 Hz of 32 mA or 44 mA alternating current was delivered for 3 s by corneal electrodes to elicit a psychomotor seizure. Mice were considered protected from seizures when the automatistic behaviors were absent (Barton et al., 2001). (4) Corneal kindled mouse model. Mice were kindled electrically with a 3 s stimulation, 8 mA, 60 Hz, and corneal electrodes to a criterion of 10 consecutive Stage 5 seizures (facial clonus and head nodding progressing to forelimb clonus, and finally rearing and falling accompanied by a generalized clonic seizure as described by Racine, 1972). Animals generally reach Stage 5 after twice daily stimulation for 8 days. With continued stimulation once a day, animals usually progressed to a reproducible Stage 5 after 10-14 additional days. At least 72 hours after the mice were kindled, the test substance was administered i.p. and each animal was given the electrical stimulus indicated above. […] Treated animals not displaying a Stage 4 or 5 seizure were considered protected."}, "zebrafish larvae": {"system": "zebrafish larvae", "experiment": "Zebrafish larval toxicity (NOEC, lethal dose)", "type": "in vivo", "settings": "for Lethal dose / Highest concentration tested for anti-seizure activity: 7 dpf zebrafish larvae; for Lethal dose: up to 5 h treatment; for Highest concentration tested for anti-seizure activity: highest sub-lethal dose"}, "Drp1": {"system": "Drp1", "experiment": "Western blot, phosphorylation of Drp1 (Ser637)", "type": "cell-based, mouse", "settings": "HT22, 10 mM glutamate 16 hrs", "procedure": "HT-22 cells were cultured and treated as described above for the qRT-PCR experiments. After 16 hrs, the media was collected and the cells harvested by trypsanization. After centrifugation, pelleted cells were washed with cold HBSS Ca^2+/Mg^2+ Free, followed by lysis with a low salt lysis buffer (50 mM Tris-HCl, pH 7.4, 150 mM NaCl, 10% glycerol, 0.5 Triton X-100, 1× protease and phosphatase inhibitor cocktail) for 30 min, followed by a 15-s sonication pulse at 30 W. For Western blot analysis, the cell lysates were denatured with LDS loading buffer (Invitrogen) and run on Nupage 4-12% Tris-glysine gradient gels (Invitrogen) after centrifugation. Phosphorylated Drp1 (Ser637) (Cell Signaling) and total Drp1 (C5) (Santa Cruz), PGAM5 (K16) (Santa Cruz Biotechnology), Actin (Sigma-Aldritch) and alpha-Tubulin (Santa Cruz Biotechnology) were assessed with primary antibody, followed by rabbit, mouse, or goat IgG-HRP secondary antibody. The blot was developed using Pierce Thermo Dura-ECL reagent (Thermo-Fisher) and visualized using an ImageQuant LAS 4000 (GE). Digital images of membranes were quantified by computer-assisted densitometry using Image J 1.42q (National Institutes of Health, MD)."}}, "data": [{"molecule": "C#CCNC1=CC(=O)c2ccccc2C1=O", "note": "[Compound 2h, 2-(prop-2-yn-1-ylamino)naphthalene-1,4-dione]", "values": [{"measurement": "effect on PTZ-induced seizures", "setting": "PTZ-induced seizures", "value": "had no effect on PTZ-induced seizures in mice"}, {"measurement": "Lethal dose", "setting": "zebrafish larvae", "value": ">0.02", "unit": "mM"}, {"measurement": "Highest concentration tested for anti-seizure activity", "setting": "zebrafish larvae", "value": 0.02, "unit": "mM"}]}, {"molecule": "O=C1C=C(NCc2ccccc2)C(=O)c2ccccc21", "note": "[Compound 2j, 2-(benzylamino)naphthalene-1,4-dione]", "values": [{"measurement": "effect on PTZ-induced seizures", "setting": "PTZ-induced seizures", "value": "had no effect on PTZ-induced seizures in mice"}, {"measurement": "Lethal dose", "setting": "zebrafish larvae", "value": 0.012, "unit": "mM"}, {"measurement": "Highest concentration tested for anti-seizure activity", "setting": "zebrafish larvae", "value": 0.010, "unit": "mM"}, {"measurement": "phosphorylation of Drp1 at Ser 637", "setting": "Drp1; 250 and 125 nM", "value": "the phosphorylation state is maintained"}]}, {"molecule": "O=C1C=C(NCc2cccc(Cl)c2)C(=O)c2ccccc21", "note": "[Compound 2q, 2-((3-chlorobenzyl)amino)naphthalene-1,4-dione]", "values": [{"measurement": "effect on PTZ-induced seizures", "setting": "PTZ-induced seizures", "value": "had no effect on PTZ-induced seizures in mice"}, {"measurement": "Lethal dose", "setting": "zebrafish larvae", "value": ">0.02", "unit": "mM"}, {"measurement": "Highest concentration tested for anti-seizure activity", "setting": "zebrafish larvae", "value": 0.02, "unit": "mM"}, {"measurement": "phosphorylation of Drp1 at Ser 637", "setting": "Drp1; 250 and 125 nM", "value": "the phosphorylation state is maintained"}]}, {"molecule": "CC1=CC(=O)c2ccccc2C1=O", "note": "[VK3, menadione, reference compound]", "values": [{"measurement": "Lethal dose", "setting": "zebrafish larvae", "value": 0.007, "unit": "mM"}, {"measurement": "Highest concentration tested for anti-seizure activity", "setting": "zebrafish larvae", "value": 0.006, "unit": "mM"}, {"measurement": "highest NOEC", "setting": "zebrafish larvae; zebrafish larvae", "value": 10, "unit": "µM"}]}, {"molecule": "menaquinones [VK2, reference compound]", "values": [{"measurement": "phosphorylation of Drp1 at Ser 637", "setting": "Drp1; 250 nM", "value": "less effective"}, {"measurement": "phosphorylation of Drp1 at Ser 637", "setting": "Drp1; 500 nM", "value": "the phosphorylation state is maintained"}]}]}
